Laboratory results from US20090304692A1, “TRIAZINE COMPOUNDS AS PI3 KINASE AND MTOR INHIBITORS” (Wyeth, priority 2008, published 2009).
Read-outs that look alike come from different tables or passages of the source.

How the values were obtained:
Human mTOR (FLAG-TOR) = Human mTOR (FLAG-TOR) (Homo sapiens, UniProt P42345); assay: mTOR kinase assay (DELFIA format, purified enzyme); format: biochemical; settings: read-out: IC50 mTOR
[1] = tested on: human breast MDA-MB-361 tumor cell line; assay: In vitro cell culture growth assay (MTS), MDA-MB-361; format: cell-based; settings: Homo sapiens, three days after drug treatment, MDA-MB-361 cells, read-out: IC50 MDA-MB-361
[2] = tested on: human prostate PC3-mm2 tumor cell line; assay: In vitro cell culture growth assay (MTS), PC3-mm2; format: cell-based; settings: Homo sapiens, PC3MM2, 72 h, three days after drug treatment, PC3-mm2 cells, read-out: IC50 PC3-mm2
PI3K-α = PI3K-α (Homo sapiens, UniProt P42336); assay: PI3K-alpha fluorescence polarization assay; settings: read-out: IC50 PI3Kα
Chain of PI3K-α (P42336 whole entry, species assumed): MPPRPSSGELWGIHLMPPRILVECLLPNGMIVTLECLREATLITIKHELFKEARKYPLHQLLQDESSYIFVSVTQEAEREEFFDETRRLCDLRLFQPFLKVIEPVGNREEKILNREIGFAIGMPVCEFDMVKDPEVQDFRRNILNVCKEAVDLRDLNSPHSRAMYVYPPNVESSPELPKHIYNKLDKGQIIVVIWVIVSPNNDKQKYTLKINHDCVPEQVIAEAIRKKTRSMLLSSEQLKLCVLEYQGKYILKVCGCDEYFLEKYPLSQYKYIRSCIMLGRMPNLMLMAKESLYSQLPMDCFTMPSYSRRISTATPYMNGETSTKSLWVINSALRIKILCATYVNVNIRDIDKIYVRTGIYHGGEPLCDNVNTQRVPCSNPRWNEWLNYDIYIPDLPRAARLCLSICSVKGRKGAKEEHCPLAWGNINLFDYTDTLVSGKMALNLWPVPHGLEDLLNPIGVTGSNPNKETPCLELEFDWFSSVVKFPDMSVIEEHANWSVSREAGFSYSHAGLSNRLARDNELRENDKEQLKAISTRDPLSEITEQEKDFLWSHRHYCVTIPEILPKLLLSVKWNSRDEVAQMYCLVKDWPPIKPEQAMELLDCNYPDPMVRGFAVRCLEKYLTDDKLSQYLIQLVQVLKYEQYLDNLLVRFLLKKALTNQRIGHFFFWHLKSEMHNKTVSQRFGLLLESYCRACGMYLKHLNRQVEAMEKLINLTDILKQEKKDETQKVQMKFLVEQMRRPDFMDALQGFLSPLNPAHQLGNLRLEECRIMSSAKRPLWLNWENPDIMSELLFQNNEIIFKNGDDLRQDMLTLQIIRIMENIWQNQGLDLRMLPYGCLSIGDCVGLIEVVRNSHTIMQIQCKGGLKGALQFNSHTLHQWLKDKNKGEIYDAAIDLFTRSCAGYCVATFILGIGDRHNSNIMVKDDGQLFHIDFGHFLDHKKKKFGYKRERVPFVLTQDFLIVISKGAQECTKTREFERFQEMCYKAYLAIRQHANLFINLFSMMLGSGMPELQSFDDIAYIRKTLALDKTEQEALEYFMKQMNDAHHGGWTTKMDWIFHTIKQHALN
Chain of PI3K-α (P27986 whole entry partner, species assumed): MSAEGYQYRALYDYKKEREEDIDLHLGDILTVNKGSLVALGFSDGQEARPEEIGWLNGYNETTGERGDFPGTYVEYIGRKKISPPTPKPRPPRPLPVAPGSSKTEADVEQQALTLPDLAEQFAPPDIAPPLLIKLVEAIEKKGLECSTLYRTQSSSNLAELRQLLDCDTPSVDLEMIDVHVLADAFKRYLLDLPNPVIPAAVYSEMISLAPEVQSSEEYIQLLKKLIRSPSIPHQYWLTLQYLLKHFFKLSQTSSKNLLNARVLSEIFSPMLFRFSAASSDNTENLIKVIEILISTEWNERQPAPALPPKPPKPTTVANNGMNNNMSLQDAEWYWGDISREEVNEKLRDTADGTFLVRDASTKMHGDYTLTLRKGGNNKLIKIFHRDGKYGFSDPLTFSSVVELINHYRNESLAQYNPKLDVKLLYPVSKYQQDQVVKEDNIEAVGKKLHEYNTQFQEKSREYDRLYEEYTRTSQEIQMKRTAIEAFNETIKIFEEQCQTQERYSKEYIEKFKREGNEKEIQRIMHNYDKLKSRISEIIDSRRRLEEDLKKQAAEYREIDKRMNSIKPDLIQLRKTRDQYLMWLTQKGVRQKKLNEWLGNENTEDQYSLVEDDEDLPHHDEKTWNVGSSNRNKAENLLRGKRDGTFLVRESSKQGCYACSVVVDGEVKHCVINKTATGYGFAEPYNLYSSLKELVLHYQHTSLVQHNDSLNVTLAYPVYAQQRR

PI3K-γ = PI3K-γ (Homo sapiens, UniProt P48736); assay: PI3K-gamma fluorescence polarization assay; settings: read-out: IC50 PI3Kγ
Chain of PI3K-γ (P48736 whole entry, species assumed): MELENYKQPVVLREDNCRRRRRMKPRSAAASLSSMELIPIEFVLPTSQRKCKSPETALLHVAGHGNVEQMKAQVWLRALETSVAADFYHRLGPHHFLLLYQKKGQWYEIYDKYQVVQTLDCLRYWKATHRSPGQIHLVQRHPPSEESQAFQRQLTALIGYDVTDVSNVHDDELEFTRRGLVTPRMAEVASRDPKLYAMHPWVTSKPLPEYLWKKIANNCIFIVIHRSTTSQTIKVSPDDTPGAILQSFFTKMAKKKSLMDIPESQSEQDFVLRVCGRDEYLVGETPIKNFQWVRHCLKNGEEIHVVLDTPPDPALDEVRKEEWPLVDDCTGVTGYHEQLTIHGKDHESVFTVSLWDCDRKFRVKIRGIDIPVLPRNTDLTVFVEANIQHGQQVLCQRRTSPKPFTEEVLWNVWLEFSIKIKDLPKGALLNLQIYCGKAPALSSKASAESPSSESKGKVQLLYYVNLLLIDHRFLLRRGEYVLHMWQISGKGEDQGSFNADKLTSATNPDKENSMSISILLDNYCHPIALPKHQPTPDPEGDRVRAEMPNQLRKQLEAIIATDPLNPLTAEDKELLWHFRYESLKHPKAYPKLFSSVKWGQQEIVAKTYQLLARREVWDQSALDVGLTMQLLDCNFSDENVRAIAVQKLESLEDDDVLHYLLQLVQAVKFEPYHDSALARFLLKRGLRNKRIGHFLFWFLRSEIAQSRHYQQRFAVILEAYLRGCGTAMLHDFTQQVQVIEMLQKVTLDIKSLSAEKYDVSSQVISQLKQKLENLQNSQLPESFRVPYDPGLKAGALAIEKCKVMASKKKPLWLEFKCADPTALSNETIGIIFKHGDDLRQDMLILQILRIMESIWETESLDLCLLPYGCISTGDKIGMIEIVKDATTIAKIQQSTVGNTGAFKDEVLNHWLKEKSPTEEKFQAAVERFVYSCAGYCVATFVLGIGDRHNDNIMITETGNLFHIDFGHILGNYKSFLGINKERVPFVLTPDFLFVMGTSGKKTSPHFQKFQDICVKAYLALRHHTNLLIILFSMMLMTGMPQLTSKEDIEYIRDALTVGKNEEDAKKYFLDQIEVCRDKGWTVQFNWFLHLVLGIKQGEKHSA

[3] = MDA-MB-361, 72 h, MTS cell growth assay

Chain of Human mTOR (FLAG-TOR) (P42345 1360-2549 limits assumed): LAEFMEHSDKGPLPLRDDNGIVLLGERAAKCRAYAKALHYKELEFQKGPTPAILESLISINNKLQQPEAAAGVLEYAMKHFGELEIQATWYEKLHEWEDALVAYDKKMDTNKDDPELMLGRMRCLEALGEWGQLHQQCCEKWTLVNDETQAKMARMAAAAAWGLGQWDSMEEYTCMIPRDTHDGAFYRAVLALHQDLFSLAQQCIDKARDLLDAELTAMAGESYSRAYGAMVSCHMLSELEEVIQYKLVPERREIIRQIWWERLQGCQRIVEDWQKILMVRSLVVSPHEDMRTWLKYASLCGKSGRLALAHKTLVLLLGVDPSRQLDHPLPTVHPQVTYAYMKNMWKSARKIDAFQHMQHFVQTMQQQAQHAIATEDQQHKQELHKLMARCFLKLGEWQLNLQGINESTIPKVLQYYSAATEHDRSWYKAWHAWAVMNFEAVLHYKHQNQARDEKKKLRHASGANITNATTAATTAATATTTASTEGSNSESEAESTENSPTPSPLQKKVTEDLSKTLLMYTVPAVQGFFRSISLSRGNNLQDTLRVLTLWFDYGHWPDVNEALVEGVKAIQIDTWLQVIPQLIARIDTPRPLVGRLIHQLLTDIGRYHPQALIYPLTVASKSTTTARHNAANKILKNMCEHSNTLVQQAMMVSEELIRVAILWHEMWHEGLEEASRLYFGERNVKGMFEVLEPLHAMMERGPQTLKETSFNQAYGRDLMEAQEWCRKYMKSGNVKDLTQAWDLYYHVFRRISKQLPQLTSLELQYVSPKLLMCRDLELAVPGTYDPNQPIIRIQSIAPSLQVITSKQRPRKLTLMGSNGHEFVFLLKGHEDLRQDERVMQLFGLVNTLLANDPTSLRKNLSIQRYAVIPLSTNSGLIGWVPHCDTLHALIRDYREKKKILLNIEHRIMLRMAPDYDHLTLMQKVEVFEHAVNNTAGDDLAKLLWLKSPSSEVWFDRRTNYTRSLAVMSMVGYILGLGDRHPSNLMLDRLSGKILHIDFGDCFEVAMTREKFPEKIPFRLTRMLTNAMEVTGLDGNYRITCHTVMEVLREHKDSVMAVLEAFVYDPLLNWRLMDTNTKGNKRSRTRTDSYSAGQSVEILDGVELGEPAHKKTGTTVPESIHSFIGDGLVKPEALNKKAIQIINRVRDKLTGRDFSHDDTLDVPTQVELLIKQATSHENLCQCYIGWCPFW

| Compound | IC50 (Human mTOR (FLAG-TOR)) [nM] | IC50 ([1]; 72 h, MTS cell growth assay) [nM] | IC50 ([2]; MTS cell growth assay) [nM] | IC50 (PI3K-α) [nM] | IC50 (PI3K-γ) [nM] | IC50 [1, 3] [nM] | IC50 ([1]; 72 h, MTS) [nM] | IC50 ([2]; MTS) [nM] | IC50 ([1]; MDA-MB-361, 72 h, MTS) [nM] |
| --- | --- | --- | --- | --- | --- | --- | --- | --- | --- |
| CN1CCN(C(=O)c2ccc(NC(=O)Nc3ccc(-c4nc(NS(=O)(=O)c5ccccc5)nc(N5CCOCC5)n4)cc3)cc2)CC1 [Example 784, N-(4-{4-[({4-[(4-methylpiperazin-1-yl)carbonyl]phenyl}carbamoyl)amino]phenyl}-6-morpholin-4-yl-1,3,5-triazin-2-yl)benzenesulfonamide] | 88 | > 1000 | > 1000 | 40.5 | 174 |  |  |  |  |
| O=C(Nc1ccc(C(=O)N2CCNCC2)cc1)Nc1ccc(-c2nc(NS(=O)(=O)c3ccccc3)nc(N3CCOCC3)n2)cc1 [Example 785, N-{4-morpholin-4-yl-6-[4-({[4-(piperazin-1-ylcarbonyl)phenyl]carbamoyl}amino)phenyl]-1,3,5-triazin-2-yl}benzenesulfonamide] | 55.5 | > 1000 | > 1000 | 6 | 45.5 |  |  |  |  |
| CN(C)C1CCN(C(=O)c2ccc(NC(=O)Nc3ccc(-c4nc(NS(=O)(=O)c5ccccc5)nc(N5CCOCC5)n4)cc3)cc2)CC1 [Example 786, N-[4-(4-{[(4-{[4-(dimethylamino)piperidin-1-yl]carbonyl}phenyl)carbamoyl]amino}phenyl)-6-morpholin-4-yl-1,3,5-triazin-2-yl]benzenesulfonamide] | 89 |  | > 1000 | 30.5 | 129 | > 1000 |  |  |  |
| CN(C)CCN(C)C(=O)c1ccc(NC(=O)Nc2ccc(-c3nc(NS(=O)(=O)c4ccccc4)nc(N4CCOCC4)n3)cc2)cc1 [Example 787, N-[2-(dimethylamino)ethyl]-N-methyl-4-{[(4-{4-morpholin-4-yl-6-[(phenylsulfonyl)amino]-1,3,5-triazin-2-yl}phenyl)carbamoyl]amino}benzamide] | 58.5 | > 1000 | > 1000 | 10.5 | 146 |  |  |  |  |
| CN(C)CCNC(=O)c1ccc(NC(=O)Nc2ccc(-c3nc(NS(=O)(=O)c4ccccc4)nc(N4CCOCC4)n3)cc2)cc1 [Example 788, N-[2-(dimethylamino)ethyl]-4-{[(4-{4-morpholin-4-yl-6-[(phenylsulfonyl)amino]-1,3,5-triazin-2-yl}phenyl)carbamoyl]amino}benzamide] | 26 | > 1000 | > 1000 | 13 | 160 |  |  |  |  |
| O=C(Nc1ccncc1)Nc1ccc(-c2nc(N3CCOCC3)nc(N3C4CCCC3COC4)n2)cc1 [Example 791, 1-{4-[4-morpholin-4-yl-6-(3-oxa-9-azabicyclo[3.3.1]non-9-yl)-1,3,5-triazin-2-yl]phenyl}-3-pyridin-4-ylurea] | 0.68 | 11 | 42 | 12.5 | 64.5 |  |  |  |  |
| CN1CCN(C(=O)c2ccc(NC(=O)Nc3ccc(-c4nc(N5CCOCC5)nc(N5C6CCCC5COC6)n4)cc3)cc2)CC1 [Example 792, 1-{4-[(4-methylpiperazin-1-yl)carbonyl]phenyl}-3-{4-[4-morpholin-4-yl-6-(3-oxa-9-azabicyclo[3.3.1]non-9-yl)-1,3,5-triazin-2-yl]phenyl}urea] | 0.81 |  | 16 | 3.3 | 35.5 | 2 |  |  |  |
| O=C(Nc1ccc(C(=O)N2CCNCC2)cc1)Nc1ccc(-c2nc(N3CCOCC3)nc(N3C4CCCC3COC4)n2)cc1 [Example 793, 1-{4-[4-morpholin-4-yl-6-(3-oxa-9-azabicyclo[3.3.1]non-9-yl)-1,3,5-triazin-2-yl]phenyl}-3-[4-(piperazin-1-ylcarbonyl)phenyl]urea] | 0.42 |  | 26 | 1 | 15 | 2 |  |  |  |
| CN(C)C1CCN(C(=O)c2ccc(NC(=O)Nc3ccc(-c4nc(N5CCOCC5)nc(N5C6CCCC5COC6)n4)cc3)cc2)CC1 [Example 794, 1-(4-{[4-(dimethylamino)piperidin-1-yl]carbonyl}phenyl)-3-{4-[4-morpholin-4-yl-6-(3-oxa-9-azabicyclo[3.3.1]non-9-yl)-1,3,5-triazin-2-yl]phenyl}urea] | 0.63 |  | 20 | 4.1 | 26 | 2 |  |  |  |
| CN(C)CCN(C)C(=O)c1ccc(NC(=O)Nc2ccc(-c3nc(N4CCOCC4)nc(N4C5CCCC4COC5)n3)cc2)cc1 [Example 795, N-[2-(dimethylamino)ethyl]-N-methyl-4-[({4-[4-morpholin-4-yl-6-(3-oxa-9-azabicyclo[3.3.1]non-9-yl)-1,3,5-triazin-2-yl]phenyl}carbamoyl)amino]benzamide] | 0.425 |  |  | 2.7 | 26.5 |  | < 3.2 | 10 |  |
| CN(C)CCNC(=O)c1ccc(NC(=O)Nc2ccc(-c3nc(N4CCOCC4)nc(N4C5CCCC4COC5)n3)cc2)cc1 [Example 796, N-[2-(dimethylamino)ethyl]-4-[({4-[4-morpholin-4-yl-6-(3-oxa-9-azabicyclo[3.3.1]non-9-yl)-1,3,5-triazin-2-yl]phenyl}carbamoyl)amino]benzamide] | 0.39 |  |  | 2.6 | 31.5 |  | 2 | 18 |  |
| COCCNC(=O)c1ccc(NC(=O)Nc2ccc(-c3nc(N4CCOCC4)nc(N4C5CCCC4COC5)n3)cc2)cc1 [Example 797, N-(2-methoxyethyl)-4-[({4-[4-morpholin-4-yl-6-(3-oxa-9-azabicyclo[3.3.1]non-9-yl)-1,3,5-triazin-2-yl]phenyl}carbamoyl)amino]benzamide] | 1.3 |  |  | 11.5 | 76 |  | 11 | 29 |  |
| O=C(Nc1ccc(C(=O)NCCN2CCCC2)cc1)Nc1ccc(-c2nc(N3CCOCC3)nc(N3C4CCCC3COC4)n2)cc1 [Example 798, 4-[({4-[4-morpholin-4-yl-6-(3-oxa-9-azabicyclo[3.3.1]non-9-yl)-1,3,5-triazin-2-yl]phenyl}carbamoyl)amino]-N-(2-pyrrolidin-1-ylethyl)benzamide] | 0.445 |  |  | 4.1 | 43.5 |  | 3 | 24 |  |
| O=C(Nc1ccc(C(=O)NCCN2CCCCC2)cc1)Nc1ccc(-c2nc(N3CCOCC3)nc(N3C4CCCC3COC4)n2)cc1 [Example 799, 4-[({4-[4-morpholin-4-yl-6-(3-oxa-9-azabicyclo[3.3.1]non-9-yl)-1,3,5-triazin-2-yl]phenyl}carbamoyl)amino]-N-(2-piperidin-1-ylethyl)benzamide] | 0.5 |  |  | 5 | 71.5 |  | < 3.2 | 24 |  |
| O=C(Nc1ccc(C(=O)N2CCC(N3CCCC3)CC2)cc1)Nc1ccc(-c2nc(N3CCOCC3)nc(N3C4CCCC3COC4)n2)cc1 [Example 800, 1-{4-[4-morpholin-4-yl-6-(3-oxa-9-azabicyclo[3.3.1]non-9-yl)-1,3,5-triazin-2-yl]phenyl}-3-{4-[(4-pyrrolidin-1-ylpiperidin-1-yl)carbonyl]phenyl}urea] | 0.72 |  |  | 5.5 | 35.5 |  |  | 11 | 1 |
| CN1CCCC1CCNC(=O)c1ccc(NC(=O)Nc2ccc(-c3nc(N4CCOCC4)nc(N4C5CCCC4COC5)n3)cc2)cc1 (centres unmarked) [Example 801, N-[2-(1-methylpyrrolidin-2-yl)ethyl]-4-[({4-[4-morpholin-4-yl-6-(3-oxa-9-azabicyclo[3.3.1]non-9-yl)-1,3,5-triazin-2-yl]phenyl}carbamoyl)amino]benzamide] | 0.455 |  |  | 5 | 38 |  | 3 | 32 |  |
| CNCCN(C)C(=O)c1ccc(NC(=O)Nc2ccc(-c3nc(N4CCOCC4)nc(N4C5CCCC4COC5)n3)cc2)cc1 [Example 802, N-methyl-N-[2-(methylamino)ethyl]-4-[({4-[4-morpholin-4-yl-6-(3-oxa-9-azabicyclo[3.3.1]non-9-yl)-1,3,5-triazin-2-yl]phenyl}carbamoyl)amino]benzamide] | 0.675 |  |  | 3.5 | 23 |  | 3 | 50 |  |
| CCN1CCN(C(=O)c2ccc(NC(=O)Nc3ccc(-c4nc(N5CCOCC5)nc(N5C6CCC5COC6)n4)cc3)cc2)CC1 [Example 803, 1-{4-[(4-ethylpiperazin-1-yl)carbonyl]phenyl}-3-{4-[4-morpholin-4-yl-6-(3-oxa-8-azabicyclo[3.2.1]oct-8-yl)-1,3,5-triazin-2-yl]phenyl}urea] | 0.19 |  |  | 3 | 29 |  |  | 6 | 1 |
| CCN1CCN(C(=O)c2ccc(NC(=O)Nc3ccc(-c4nc(N5CCOCC5)nc(N5C6CCCC5COC6)n4)cc3)cc2)CC1 [Example 804, 1-{4-[(4-ethylpiperazin-1-yl)carbonyl]phenyl}-3-{4-[4-morpholin-4-yl-6-(3-oxa-9-azabicyclo[3.3.1]non-9-yl)-1,3,5-triazin-2-yl]phenyl}urea] | 0.425 |  |  | 6 | 59.5 |  |  | 11 | 3 |
